One substance from US20020168365A1, “Method for modulating granzyme B uptake and for identifying modulators thereof” (priority 2000, published 2002) can be followed below.

One assay relates to CI-MPR^+ cells. Nature of the assay: TUNEL and annexin V apoptosis assays with grB and AD. Type of assay: cell-based, murine L cells transfected with human CI-MPR. As to the method:
(§1) For the in vitro killing assays, 10 pfu per cell of replication-deficient adenovirus (AD) were added subsequent to grB addition. Analysis of DNA fragmentation by TUNEL analysis has been described previously (Heibein et al., 1999). TUNEL materials (Roche Diagnostics) were used as per the manufacturer's instructions. Phosphatidylserine externalization was measured as previously described (Heibein et al., 1999) using annexin V-FITC (PharMingen). Percent specific TUNEL/annexin V positive cells was calculated as: [(% positive labeling cells with grB and AD-% positive labeling cells without grB and AD)/(100-% positive labeling cells without grB and AD)]×100.

Assay [1] deals with Jurkat cells. The description is as above. In kind it is cell-based, human. As to the method:
(§2) GrB was treated for 1 hr at 37° C. in a phosphate-free (saline) or a high-phosphate (64.5 mM Na2HPO4.7H2O, 21 mM KH2PO4) buffer with calf intestinal alkaline phosphatase (1-10 U), 20 nM of the 37 kDa catalytic subunit of recombinant protein phosphatase-1 (Bagu et al, 1997), or with vehicle control. Cells were then incubated with the treated grB at 4° C. for 30-60 min. For the TUNEL or annexin V assays, cells were then washed twice before incubation at 37° C. with AD.
(§3) M6P and various other monosaccharides at different concentrations were added to cells for 15 min at 4° C. before the addition of labeled grB, or at room temperature before the addition of grB and AD.
(§4) GrB was incubated with sCI-MPR at various concentrations in PBS/0.1% BSA for 30 min at 4° C. Subsequently, cells were incubated with grB/sCI-MPR for 30-60 min at 4° C. and washed twice, before analysis of binding, or before the addition of AD for TUNEL and annexin V analysis.
as §1
Cells were resuspended at 10^6 cells/ml in 0.1% BSA/DMEM. Adenovirus (10 PFU/cell) and granzyme B (grB) were added directly to the cell suspension. Cells were incubated at 37° C. for 3 h. For staurosporine killing, cells were resuspended at 10^6 cells/ml in their normal growth medium and staurosporine (2.5 μM) was added directly to the cell suspension. Cells were incubated at 37° C. for 2, 4 and 8 h.
(§5) DNA fragmentation was monitored by flow cytometric analysis via the terminal deoxynucleotidyltransferase-mediated dUTP-biotin nick end labeling (TUNEL) method. Flow cytometric analysis was performed on a Becton Dickinson FACScanθ flow cytometer equipped with an argon-ion laser with 15 mW of excitation at 488 nm. Emission wavelengths were detected through the FL1 channel. Data were acquired on 10,000 cells per sample with light scatter signals at linear gain and fluorescence signals at logarithmic gain. Percent specific TUNEL positive cells was calculated as follows: [(% positive labeling cells with grB and AD−% positive labeling cells without grB and AD)/(AD−% positive labeling cells without grB and AD)]×100.
as §5, with “Phosphatidylserine externalization” for “DNA fragmentation”, “monitored using the ApoAlertθ annexin V apoptosis kit (Clontech) according to the protocol provided” for “monitored”, “by” for “by flow cytometric analysis via”, “manufacturer.” for “terminal deoxynucleotidyltransferase-mediated dUTP-biotin nick end labeling (TUNEL) method.”, “Annexin V” for “TUNEL”

The next assay deals with wild-type L cells. The assay is described as above. In kind it is cell-based, murine. The procedure: as §1
For a further assay, the system named is MPR^− cells. Described as above. In kind it is cell-based, murine. Conditions: 100 ng/ml grB and AD, 3 hr. As to the method:
as §1

The test system of assay [2] is Jurkat cells. Nature of the assay: GrB binding assay (flow cytometry, labeled grB at 4° C.). Details: species or system human. The procedure: Cells (1-2×10^5) were washed twice and resuspended in buffer before the addition of grB-biotin or -OG in a final volume of 20 μl for a 30-60 min incubation and washed again twice. In the case of grB-biotin, cells were then incubated with streptavidin-cychrome for 20 min and washed twice. Unless otherwise indicated, ˜25 ng grB-biotin or -OG was used to label cells. All steps of the assay were carried out at 4° C. to prevent intracellular uptake of grB. PBS/0.1% BSA buffer was used throughout the procedure. In some cases, results are presented as the relative MFI, which represents the MFI of the grB-labeled population minus the MFI of the unlabeled population.
as §2, §3, §4
In general terms: A flow cytometer gives signals particle by particle.

[3] abbreviates: at later times (data not shown).
The mark [4] stands for this setting: at the time-point of the assay (3 hr).
The mark [5] stands for this setting: grB treated with catalytic subunit of protein phosphatase-1 (data not shown).

As to “grB: Human serine proteinase granzyme B purified from the cytolytic granules of YT-Indy cells”, the “TUNEL and annexin V positive cells” value in the assay with CI-MPR^+ cells (setting [3]) is on record as around 100%; with CI-MPR^+ cells (setting [4]) it was “about 30%”; in the assay on wild-type L cells (setting [3]), around 100%; in the assay with wild-type L cells (setting [4]), “about 30%”. Also, in the assay on Jurkat cells [1] (Jurkat cells incubated with only grB (no AD)), the “percentage of TUNEL/annexin V positive cells” value is listed as “under 8%”. Also, the “TUNEL and annexin V labeling” value with Jurkat cells [1] (Jurkat cells, 3 hr, varying concentrations of grB and AD (Example 2)) is “significant TUNEL and annexin V labeling”. Besides, the “ability to induce apoptosis of Jurkat cells” value in the assay on Jurkat cells [1] (setting [5]) is given as “did not lose”. In addition, the “concentration sufficient to elicit effective Jurkat cell killing” value in the assay with Jurkat cells [1] (granule-purified grB with AD (FIG. 3C)) is “less than 1 ng/ml”. Further, the “grB and AD-induced DNA fragmentation” value with MPR^− cells is reported as “relatively resistant”. For the same substance, the figures for the “ability to bind Jurkat cells” value in the assay with Jurkat cells [2] (setting [5]) and with Jurkat cells [2] (grB-biotin treated with alkaline phosphatase in phosphate-free buffer) were “did not lose” and “marked reduction”, respectively.
